# Assays:
# [1] = tested on: bone marrow derived mesenchymal cells and human bone marrow endothelial cells; assay: Binding of biotin-coupled peptides to cells in vitro, avidin-FITC detection; assay type: cell-based
# Excerpt: The cells currently investigated for binding to the peptides of the present invention were chosen because they are derived from bone marrow and are characteristic of mesenchymal cells that are pluripotential and behave as osteoprogenitors. The cells are capable of differentiating into bone cells in vitro and retain their osteogenic properties after transplantation in vivo into syngeneic mice. The human bone marrow endothelial cells are non-osteogenic and, therefore, are in contrast to the collagen type I, and mineral, producing properties of mesenchymal cells. The bone marrow endothelial cells serve the purpose of having a cell that is derived from the endothelial lining of the bone marrow cavity i.e. a cell from the endosteal surface. Although these are not the only cells that can be used, they will form the basis of the majority of the present studies with cells. […]
# Peptides have been synthesized with a gly-gly-gly linker and coupled to biotin. […] Fluorescence was found at attachment sites of cellular processes to the substratum. […]
# Control experiments with non-biotinylated peptides will ensure that binding avidin-FITC is specific to the properties of the peptide that target the cell surface or its extracellular matrix. No non-specific binding has been encountered so far with the three peptide sequences that have been explored and, there was no background fluorescence.
# [2] = tested on: C4-2 cells binding to huBMEC; assay: Adhesion of 3H-thymidine labeled C4-2 cancer cells to huBMEC lawns in presence of peptide; assay type: cell-based, human; conditions: for PERCENT OF CONTROL AT 2H ADHESION: C4-2 cells on huBMEC; for inhibition of the ability of C42 cells to bind to huBMEC: in words, based on Table 1
# Excerpt: (§1) In accordance with one embodiment a method for inhibiting the growth of tumors is provided. The method comprises the steps of contacting tumor cells with a composition comprising an amino acid sequence selected from the group consisting of SEQ ID NOs: 1-24. As described in Example 3 the peptides of the present invention have been studied for their ability to prevent cancer cells from binding to human bone marrow endothelial cells (huBMEC). Either androgen dependent cancer cells (LNCaP cells) or androgen independent cancer cells (C42 cells) were labeled with 3H-thymidine and placed in contact with huBMEC in the presence of varying concentrations of bone targeting peptides R1 (SEQ ID NO: 25), R3 (SEQ ID NO: 27), L13 (SEQ ID NO: 22) and L19 (SEQ ID NO: 24). The cells were washed and the percent of acid precipitatable counts bound to huBMEC was determined (See Table 1). The control, where no bone targeting peptide was added generated approximately 18% acid ppt counts bound. […] Accordingly, these peptides in particular may be formulated a pharmaceutical compositions to prevent metastases to the bone. The composition may further include known anti-cancer agents such as chemotherapeutic agents. The compositions can be administered to a patient using any of the standard routes including oral and parenteral. In one preferred embodiment the compositions are administered locally by injection.
# (§2) The initial interaction of metastatic cells is with the surface of the organ that will be colonized. Presumably, this interaction is through cell-matrix or cell-cell interaction. There are at least two potential targets for prostate cancer cells to interact, bone stromal cells and bone marrow endothelial cells. Briefly, lawns of target cells (D1 or huBMEC) will be established in 24-well dishes by seeding ˜5×10^4 cells per well 2-3 days before the adhesion experiment. At this time, subconfluent (˜50%) cultures of test cells (LNCaP, C4-2, DU145 and PC-3) will be placed into media with 1 uCi/ml tritiated thymidine. Two to three days later, labeled cells will be removed using a 5-10 mM EDTA/PBS solution and 1×10^5 test cells will be added to confluent lawns of target cells. Three groups are envisioned for each cell line 1) no peptide, 2) peptide at ED50 and 3) peptide at ED90.
# (§3) There will also be an aliquot of labeled cells set aside to determine total acid precipitablc counts added. Adhesion assays will proceed for either 1 or 2 hours. Adherent cells will be separated from non-adherent cells by 2 rounds of 0.5 ml washes with PBS at 100 rpm for 2 minutes per wash. The remaining cells will then be fixed in 10% TCA for 10 min. with gentle shaking followed by hydrolysis of the residue in 0.5 ml of 2 N NaOH. The NaOH will be neutralized by 100 ul of concentrated HCl. The samples will then be counted in a liquid scintillation apparatus. The data will be analyzed by the Mellon Prostate Center Biostatistics Core to determine differences in growth and the ED50 and ED90 for each peptide if reasonable.
# (§4) Using this adhesion assay the bone targeting peptides have been studied for their ability to prevent cancer cells from binding to huBMEC. Either androgen dependent cancer cells (LNCaP cells) or androgen independent cancer cells (C42 cells) were labeled with 3H-thymidine and placed in contact with huBMEC in the presence of varying concentrations of bone targeting peptides R1 (SEQ ID NO: 25), R3 (SEQ ID NO: 27), L13 (SEQ ID NO: 22) and L19 (SEQ ID NO: 24). The cells were washed and the percent of acid precipitatable counts bound to huBMEC was determined (See Table 1). The control, where no bone targeting peptide was added, is not shown, but generated approximately 18% acid ppt counts bound. […] Accordingly, these peptides in particular may be formulated a pharmaceutical compositions to prevent metastases to the bone.
# [3] = tested on: LNCaP cells binding to huBMEC; assay: Adhesion of 3H-thymidine labeled LNCaP cancer cells to huBMEC lawns in presence of peptide; assay type: cell-based, human; conditions: for PERCENT OF CONTROL AT 2H ADHESION: LNCaP cells on huBMEC; for inhibition of the ability of LNCaP cells to bind to huBMEC: in words, based on Table 1
# Excerpt: as §1, §2, §3, §4
# [4] = tested on: rib bone; assay: Localisation of peptides to rib tissue
# Excerpt: The peptides may have different effects depending on cell types from different tissues. The need to explore cells from other tissues, such as fibroblasts, adipocytes or muscle cells, may be determined by the location of the peptide ligands in area of tissue that are not directed within bone but there are adjacent to it. The case in point is that one peptide so far, L19, has been located to a tissue, that has not been identified yet, which, is adjacent to bone in rib. […] Analysis of cell types other than marrow mesenchymal or endothelial cells will help identify the specific cells, and their matrices that are targeted by individual peptides.
binding to bone (in rib) [4],Substance,binding to cells in culture [1],PERCENT OF CONTROL AT 2H ADHESION ([2]; peptide 50 μM),PERCENT OF CONTROL AT 2H ADHESION ([2]; peptide 100 μM),PERCENT OF CONTROL AT 2H ADHESION ([3]; peptide 50 μM),PERCENT OF CONTROL AT 2H ADHESION ([3]; peptide 100 μM),inhibition of the ability of C42 cells to bind to huBMEC [2],inhibition of the ability of LNCaP cells to bind to huBMEC [3],tissue localisation of peptide ([4]; preliminary)
,ASN- TYR-SER-HIS-LEU-ARG- VAL-LYS-LEU-PRO-THR-PRO (NYSHLRVKLPTP; listed as Homo sapiens) [R1],binds to cells in culture,9.0 % of control,9.6 % of control,14.7 % of control,9.9 % of control,,,
binds to rib bone,SER-GLY-HIS-GLN-LEU-LEU-LEU-ASN-LYS-MET-PRO-ASN (SGHQLLLNKMPN; listed as Homo sapiens) [L13],,5.8 % of control,4.2 % of control,3.8 % of control,2.8 % of control,substantially inhibits,substantially inhibits,
not detected in the bone itself,ASP-SER-SER-ASN-PRO-ILE-PHE- TRP-ARG-PRO-SER-SER (DSSNPIFWRPSS; listed as Homo sapiens) [L19],,15.6 % of control,18.4 % of control,3.3 % of control,4.1 % of control,substantially inhibits,,localized to a soft tissue adjacent to rib
,ALA- THR- TRP-SER-HIS-HIS-LEU-SER-SER-ALA-GLY-LEU (ATWSHHLSSAGL; listed as Homo sapiens) [R3],,17.9 % of control,7.9 % of control,14.7 % of control,3.8 % of control,substantially inhibits,substantially inhibits,
